PubChem BioAssay AID248 (DTP/NCI, 2004)
“And” between values parts separate entries of the source, which are not always exact repeats. Identical values can stand only once. Inconclusive results and toxic doses are left out. Cut-off read from the data, not from the text of the source: active = T/C of 150% or more; inactive = T/C below 125%.

System: L1210 leukemia ip in BDF1 mice, survival T/C
Test: NCI In Vivo Anticancer Drug Screen. Data for tumor model L1210 Leukemia (intraperitoneal) in B6D2F1 (BDF1) mice
Conditions: endpoint: mean survival time, higher = longer survival
Summary of the method: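 Read-out is survival time, reported as the treated-group measurement over the vehicle-control measurement.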

[1] = dose: 50.0 mg/kg/injection, schedule: Q01DX009 (ip), vehicle: saline with Tween-80
[2] = dose: 100.0 mg/kg/injection, schedule: Q01DX001 (ip), vehicle: Klucel (hydroxypropylcellulose) (HPC)
[3] = dose: 100.0 mg/kg/injection, schedule: Q04DX003 (ip), vehicle: Klucel (hydroxypropylcellulose) (HPC)
[4] = dose: 100.0 mg/kg/injection, schedule: Q04DX003 (ip), vehicle: saline with Tween-80
[5] = dose: 200.0 mg/kg/injection, schedule: Q01DX001 (ip), vehicle: Klucel (hydroxypropylcellulose) (HPC)
[6] = dose: 100.0 mg/kg/injection, schedule: Q01DX009 (ip), vehicle: Klucel (hydroxypropylcellulose) (HPC)
[7] = dose: 200.0 mg/kg/injection, schedule: Q01DX009 (ip), vehicle: Klucel (hydroxypropylcellulose) (HPC)
[8] = dose: 200.0 mg/kg/injection, schedule: Q04DX003 (ip), vehicle: Klucel (hydroxypropylcellulose) (HPC)
[9] = dose: 400.0 mg/kg/injection, schedule: Q01DX009 (ip), vehicle: Klucel (hydroxypropylcellulose) (HPC)
[10] = dose: 400.0 mg/kg/injection, schedule: Q04DX003 (ip), vehicle: Klucel (hydroxypropylcellulose) (HPC)
[11] = dose: 400.0 mg/kg/injection, schedule: Q01DX001 (ip), vehicle: Klucel (hydroxypropylcellulose) (HPC)
[12] = dose: 400.0 mg/kg/injection, schedule: Q01DX001 (ip), vehicle: carboxymethylcellulose (CMC)
[13] = dose: 100.0 mg/kg/injection, schedule: Q01DX001 (ip), vehicle: saline
[14] = dose: 200.0 mg/kg/injection, schedule: Q01DX001 (ip), vehicle: saline
[15] = dose: 400.0 mg/kg/injection, schedule: Q01DX001 (ip), vehicle: saline
[16] = dose: 100.0 mg/kg/injection, schedule: Q04DX003 (ip), vehicle: saline
[17] = dose: 200.0 mg/kg/injection, schedule: Q04DX003 (ip), vehicle: saline
[18] = dose: 400.0 mg/kg/injection, schedule: Q04DX003 (ip), vehicle: saline

Measured: T/C

Cc1cc(C)c(N)c(Br)c1
inactive: dose: 25.0 mg/kg/injection, schedule: Q01DX009 (ip), vehicle: saline with Tween-80 88 % of control | dose: 25.0 mg/kg/injection, schedule: Q04DX003 (ip), vehicle: Klucel (hydroxypropylcellulose) (HPC) 95 % of control | [1] 87 % of control | dose: 50.0 mg/kg/injection, schedule: Q04DX003 (ip), vehicle: Klucel (hydroxypropylcellulose) (HPC) 97 % of control | [2] 95 % of control | [3] 93 % of control and 90 % of control | [4] 91 % of control | [5] 97 % of control

CCOc1ccc(OCC)c2c1C(=O)c1ccccc1C2=O
inactive: [6] 97 % of control | [3] 95 % of control | [7] 100 % of control | [8] 100 % of control | [9] 97 % of control | [10] 97 % of control

c1ccc2cc(C3OCC4(CCC4)CO3)ccc2c1
inactive: [2] 94 % of control | [5] 104 % of control | [11] 104 % of control

CCOC(=O)C(C)N(c1ccccc1)S(=O)(=O)c1ccc(C)cc1 (stereo not drawn)
inactive: dose: 100.0 mg/kg/injection, schedule: Q01DX001 (ip), vehicle: carboxymethylcellulose (CMC) 103 % of control | dose: 200.0 mg/kg/injection, schedule: Q01DX001 (ip), vehicle: carboxymethylcellulose (CMC) 110 % of control | [12] 113 % of control

CCCOc1ccc(-c2nc(-c3ccc(N=Cc4ccc(N(CCOS(C)(=O)=O)CCOS(C)(=O)=O)cc4Cl)cc3)cs2)cc1
inactive: dose: 50.0 mg/kg/injection, schedule: Q01DX009 (ip), vehicle: Klucel (hydroxypropylcellulose) (HPC) 107 % of control | [2] 102 % of control | [6] 100 % of control | [5] 100 % of control | [7] 107 % of control | [11] 96 % of control

CCCCCCCCCCCCOc1ccc(C(C)(C)C)cc1
inactive: dose: 100.0 mg/kg/injection, schedule: Q01DX007 (ip), vehicle: saline with Tween-80 97 % of control | [4] 100 % of control | dose: 200.0 mg/kg/injection, schedule: Q01DX007 (ip), vehicle: saline with Tween-80 96 % of control | dose: 200.0 mg/kg/injection, schedule: Q04DX003 (ip), vehicle: saline with Tween-80 95 % of control | dose: 400.0 mg/kg/injection, schedule: Q01DX007 (ip), vehicle: saline with Tween-80 97 % of control | dose: 400.0 mg/kg/injection, schedule: Q04DX003 (ip), vehicle: saline with Tween-80 101 % of control

O=C(O)CCc1nn(-c2ccccc2)c(=O)c2ccccc12
inactive: dose: 100.0 mg/kg/injection, schedule: Q04DX002 (ip), vehicle: Klucel (hydroxypropylcellulose) (HPC) 106 % of control | dose: 200.0 mg/kg/injection, schedule: Q04DX002 (ip), vehicle: Klucel (hydroxypropylcellulose) (HPC) 95 % of control

CN(C)CCSS(=O)(=O)O
inactive: [13] 93 % of control | [14] 96 % of control | [15] 102 % of control

COc1cc2c(cc1OC)C(OC)N(C)c1c-2ccc2cc(OC)c(OC)cc12 (stereo not drawn)
inactive: dose: 100.0 mg/kg/injection, schedule: Q01DX009 (ip), vehicle: water 110 % of control | dose: 100.0 mg/kg/injection, schedule: Q04DX003 (ip), vehicle: water 103 % of control | dose: 200.0 mg/kg/injection, schedule: Q04DX003 (ip), vehicle: water 115 % of control | dose: 400.0 mg/kg/injection, schedule: Q01DX009 (ip), vehicle: water 104 % of control and 122 % of control | dose: 400.0 mg/kg/injection, schedule: Q04DX003 (ip), vehicle: water 113 % of control

O=C(COc1ccc(Cl)cc1)Nc1ccccc1C(F)(F)F
inactive: [6] 102 % of control and 89 % of control | [3] 103 % of control | [7] 100 % of control | [8] 106 % of control | [9] 98 % of control | [10] 93 % of control

COc1ccc(/C=C(/c2ccccc2)[N+](=O)[O-])cc1
inactive: dose: 176.0 mg/kg/injection, schedule: Q01DX001 (ip), vehicle: carboxymethylcellulose (CMC) 102 % of control | dose: 264.0 mg/kg/injection, schedule: Q01DX001 (ip), vehicle: carboxymethylcellulose (CMC) 89 % of control | [12] 89 % of control | dose: 600.0 mg/kg/injection, schedule: Q01DX001 (ip), vehicle: carboxymethylcellulose (CMC) 89 % of control

COc1ccc(/C=C2\N=C(c3ccccc3)OC2=O)cc1OC
inactive: dose: 50.0 mg/kg/injection, schedule: Q01DX001 (ip), vehicle: saline 105 % of control | [13] 109 % of control | [16] 96 % of control | [14] 105 % of control | [17] 100 % of control | [15] 100 % of control | [18] 96 % of control

CC(C)(CC(=O)O)CC(=O)OCC(=O)[C@@]1(O)CC[C@H]2[C@@H]3CCC4=CC(=O)C=C[C@]4(C)[C@H]3[C@@H](O)C[C@@]21C
inactive: dose: 20.0 mg/kg/injection, schedule: Q01DX009 (ip), vehicle: steriod suspending solution 103 % of control | dose: 40.0 mg/kg/injection, schedule: Q01DX009 (ip), vehicle: steriod suspending solution 103 % of control | dose: 50.0 mg/kg/injection, schedule: Q01DX001 (sc), vehicle: steriod suspending solution 102 % of control | dose: 80.0 mg/kg/injection, schedule: Q01DX009 (ip), vehicle: steriod suspending solution 111 % of control | dose: 100.0 mg/kg/injection, schedule: Q01DX001 (sc), vehicle: steriod suspending solution 100 % of control | dose: 100.0 mg/kg/injection, schedule: Q01DX009 (sc), vehicle: steriod suspending solution 93 % of control | dose: 100.0 mg/kg/injection, schedule: Q04DX003 (sc), vehicle: steriod suspending solution 98 % of control | dose: 200.0 mg/kg/injection, schedule: Q01DX001 (sc), vehicle: steriod suspending solution 113 % of control | dose: 200.0 mg/kg/injection, schedule: Q01DX009 (sc), vehicle: steriod suspending solution 104 % of control and 118 % of control | dose: 200.0 mg/kg/injection, schedule: Q04DX003 (sc), vehicle: steriod suspending solution 110 % of control | dose: 400.0 mg/kg/injection, schedule: Q01DX001 (sc), vehicle: steriod suspending solution 107 % of control | dose: 400.0 mg/kg/injection, schedule: Q01DX009 (sc), vehicle: steriod suspending solution 102 % of control and 124 % of control | dose: 400.0 mg/kg/injection, schedule: Q04DX003 (sc), vehicle: steriod suspending solution 104 % of control

CCOC(=O)C1CN(CCc2ccccc2)CCC1=O (stereo not drawn)
inactive: dose: 75.0 mg/kg/injection, schedule: Q01DX001 (ip), vehicle: saline 101 % of control | dose: 75.0 mg/kg/injection, schedule: Q04DX003 (ip), vehicle: saline 100 % of control | dose: 150.0 mg/kg/injection, schedule: Q01DX001 (ip), vehicle: saline 95 % of control | dose: 150.0 mg/kg/injection, schedule: Q04DX003 (ip), vehicle: saline 100 % of control | dose: 300.0 mg/kg/injection, schedule: Q01DX001 (ip), vehicle: saline 91 % of control | dose: 300.0 mg/kg/injection, schedule: Q04DX003 (ip), vehicle: saline 108 % of control

CC(C)(CNCc1ccccc1)COS(=O)(=O)O
inactive: [16] 102 % of control | [17] 102 % of control | [18] 100 % of control

CCOC(=O)C(NC(=O)NC)C(=O)OCC
inactive: [6] 98 % of control | [3] 102 % of control | [7] 93 % of control | [8] 98 % of control | [9] 102 % of control | [10] 96 % of control

Cc1nc2c(NC(=O)CCl)nn(C)c2nc1C
inactive: [1] 98 % of control | dose: 100.0 mg/kg/injection, schedule: Q01DX009 (ip), vehicle: saline with Tween-80 98 % of control

CC(=O)O[C@H]1[C@H]2O[C@]23[C@@H]2CC[C@@H]4C[C@@H](OC(=O)CCC(=O)O)CC[C@]4(C)[C@H]2CC[C@]3(C)[C@H]1c1ccc(=O)oc1
inactive: dose: 0.13 mg/kg/injection, schedule: Q01DX009 (ip), vehicle: Klucel (hydroxypropylcellulose) (HPC) 100 % of control | dose: 0.25 mg/kg/injection, schedule: Q01DX009 (ip), vehicle: Klucel (hydroxypropylcellulose) (HPC) 97 % of control | dose: 0.5 mg/kg/injection, schedule: Q01DX009 (ip), vehicle: Klucel (hydroxypropylcellulose) (HPC) 93 % of control | dose: 1.0 mg/kg/injection, schedule: Q01DX009 (ip), vehicle: Klucel (hydroxypropylcellulose) (HPC) 110 % of control
